Laboratory results taken from ChEMBL document CHEMBL4418314, “Cyano-substituted heterocycles with activity as inhibitors of usp30” (2018).

Biological target: T1, Ubiquitin carboxyl-terminal hydrolase 30 (Homo sapiens, UniProt Q70CQ3)
T1 sequence (Q70CQ3 whole entry): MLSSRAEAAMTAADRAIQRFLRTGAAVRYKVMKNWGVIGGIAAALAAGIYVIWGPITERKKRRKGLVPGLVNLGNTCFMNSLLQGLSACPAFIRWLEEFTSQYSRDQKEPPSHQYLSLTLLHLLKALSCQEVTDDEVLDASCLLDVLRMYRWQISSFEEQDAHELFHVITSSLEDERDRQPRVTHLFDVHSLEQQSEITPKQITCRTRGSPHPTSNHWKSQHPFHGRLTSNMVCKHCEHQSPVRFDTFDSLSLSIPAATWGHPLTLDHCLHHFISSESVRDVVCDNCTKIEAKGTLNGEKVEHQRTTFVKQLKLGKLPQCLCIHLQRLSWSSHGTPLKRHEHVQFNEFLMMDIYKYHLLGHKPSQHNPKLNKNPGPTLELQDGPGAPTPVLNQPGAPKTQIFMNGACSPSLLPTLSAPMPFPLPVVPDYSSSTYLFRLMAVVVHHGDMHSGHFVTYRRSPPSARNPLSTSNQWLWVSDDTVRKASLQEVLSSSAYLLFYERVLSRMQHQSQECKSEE
Assay: Inhibition of untagged human USP30 catalytic domain (57 to 517 residues) expressed in Escherichia coli using TAMRA labeled ubiquitin peptide as substrate preincubated for 30 min followed by substrate addition and measured after 2 hrs by fluorescence polarization assay

IC50: < 100 nM
Structure (SMILES): N#CN1CCC[C@](F)(C(=O)Nc2cc(-c3cccc(C(F)(F)F)c3)on2)C1
